The text below walks through data of ChEMBL document CHEMBL1136562, “Structure-activity relationships of substituted benzothiophene-anthranilamide factor Xa inhibitors” (Bioorg Med Chem Lett, 2003).

Assay [1] addresses Prothrombin (Homo sapiens, UniProt P00734). Put plainly: Inhibition constant against human thrombin. The conditions noted are these: read-out: Ki app.
Assay [2] has as its target Coagulation factor X (Homo sapiens, UniProt P00742). Briefly: Inhibition constant against human factor Xa. The conditions noted are these: read-out: Ki app.
Assay [3] deals with Cationic trypsin (Bos taurus). Briefly: Inhibition constant against bovine trypsin.

Structures are written as SMILES.

Sequence of Coagulation factor X (P00742 41-179 limits assumed): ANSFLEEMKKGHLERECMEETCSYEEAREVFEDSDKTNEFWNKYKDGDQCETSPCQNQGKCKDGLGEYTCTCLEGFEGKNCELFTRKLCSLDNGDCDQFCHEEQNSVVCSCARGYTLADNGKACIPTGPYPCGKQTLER
Sequence of Coagulation factor X (P00742 235-488 limits assumed): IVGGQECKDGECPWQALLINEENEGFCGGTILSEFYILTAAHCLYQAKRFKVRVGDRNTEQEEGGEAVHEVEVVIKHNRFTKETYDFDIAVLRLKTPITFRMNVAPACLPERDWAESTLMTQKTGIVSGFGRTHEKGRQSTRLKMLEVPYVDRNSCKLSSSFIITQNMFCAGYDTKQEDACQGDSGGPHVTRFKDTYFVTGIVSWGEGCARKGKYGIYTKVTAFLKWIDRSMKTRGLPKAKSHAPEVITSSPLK

On to `O=C(Nc1ccc(Cl)cc1)c1cc(Cl)c(F)cc1NC(=O)c1sc2ccccc2c1Cl`, for which the Ki is above 5 µM in assay [1] and 0.007 µM in assay [2].
As to `Cc1ccc(NC(=O)c2sc3ccccc3c2Cl)c(C(=O)Nc2ccc(C(F)(F)F)cc2)c1`, the Ki in assay [1] and in assay [2] was above 5 µM throughout. In addition, the Ki app in assay [3] is above 5 µM.
As to `COc1cc(Cl)cc(C(=O)Nc2ccc(Cl)cc2)c1NC(=O)c1sc2ccccc2c1Cl`, the results for the Ki in assay [1] and in assay [2] were above 5 µM and 0.0022 µM, respectively. Also, the Ki app in assay [3] was above 5 µM.
Take `CSc1ncc(Cl)c(C(=O)Nc2ccc(C)cc2C(=O)Nc2ccc(Cl)cc2)n1`: the Ki in assay [1] and in assay [2] was above 5 µM throughout. For the same compound, the Ki app in assay [3] is above 5 µM.
For the compound `O=C(Nc1ccc(Cl)cc1)c1cccc(O)c1NC(=O)c1sc2ccccc2c1Cl`, the Ki is above 5 µM in assay [1] and 0.018 µM in assay [2].
Take `O=C(Nc1cccc(Cl)c1C(=O)Nc1ccc(Cl)cc1)c1sc2ccccc2c1Cl`: the Ki in assay [1] and in assay [2] was above 5 µM each time. Moreover, the Ki app in assay [3] was above 5 µM.
With `O=C(Nc1ccc(Cl)cc1)c1ccc(Cl)cc1NC(=O)c1sc2ccccc2c1Cl`, the Ki is above 5 µM in assay [1] and 0.026 µM in assay [2].
Take `Cc1ccc(NC(=O)c2sc3ccccc3c2Cl)c(C(=O)Nc2ccc(Cl)cn2)c1`: the Ki was above 5 µM in assay [1] and 0.0023 µM in assay [2]. For the same compound, in assay [3], the Ki app was above 5 µM.
Take `Cc1ccc(NC(=O)c2sccc2Cl)c(C(=O)Nc2ccc(F)cc2)c1`: the Ki in assay [1] was above 5 µM; in assay [2], 0.39 µM. In assay [3], this compound had a Ki app above 5 µM.
In the case of `Cc1ccc(NC(=O)c2sc(C)nc2C)c(C(=O)Nc2ccc(Cl)cc2)c1`, the Ki is above 5 µM in assay [1] and 0.21 µM in assay [2].
The corresponding values for `O=C(Nc1ccc(Cl)cc1)c1cc([N+](=O)[O-])ccc1NC(=O)c1sc2ccccc2c1Cl` are above 5 µM and above 0.5 µM.
As to `Cc1ccc(C(=O)Nc2ccc(Cl)cc2)c(NC(=O)c2sc3ccccc3c2Cl)c1`, the Ki in assay [1] was above 5 µM; in assay [2] it was 0.0072 µM. The compound further displayed a Ki app in assay [3] above 5 µM.
In the case of `Cc1ccc(NC(=O)c2sc3ccccc3c2C)c(C(=O)Nc2ccc(F)cc2)c1`, the Ki is above 5 µM in assay [1] and 0.025 µM in assay [2]. This compound also displayed a Ki app in assay [3] above 5 µM.
For `CCOC(=O)COc1cccc(C(=O)Nc2ccc(Cl)cc2)c1NC(=O)c1sc2ccccc2c1Cl`, the Ki in assay [1] was above 5 µM; in assay [2] it was 0.022 µM. This compound also gave a Ki app in assay [3] above 5 µM.
For `Cc1ccc(NC(=O)c2sc3ccccc3c2Cl)c(C(=O)Nc2ccc(Br)cc2)c1`, the Ki was above 5 µM in assay [1] and 0.00046 µM in assay [2].
For `Cc1ccc(NC(=O)c2sc3ccccc3c2Cl)c(C(=O)Nc2ccccn2)c1`, the figures for the Ki in assay [1] and in assay [2] were above 5 µM and 0.03 µM, respectively. In assay [3], this compound had a Ki app above 5 µM.
Take `Cc1ccc(NC(=O)c2sc3ccccc3c2Cl)c(C(=O)Nc2ccc(CN)cc2)c1`: the Ki in assay [1] is above 5 µM; in assay [2], 1.4 µM. The Ki app in assay [3] is above 5 µM.
With `COc1c(Br)csc1C(=O)Nc1ccc(C)cc1C(=O)Nc1ccc(Cl)cc1`, the figures for the Ki in assay [1] and in assay [2] were above 5 µM and 0.054 µM, respectively.
In the case of `COC(=O)c1ccc(NC(=O)c2cc(C)ccc2NC(=O)c2sc3ccccc3c2Cl)cc1`, the Ki in assay [1] and in assay [2] was above 5 µM throughout. This compound came in with a Ki app in assay [3] above 5 µM.
For the compound `Cc1cc(NC(=O)c2sc3ccccc3c2Cl)c(C(=O)Nc2ccc(Cl)cc2)cc1Cl`, the values for the Ki in assay [1] and in assay [2] were above 5 µM and 0.011 µM, respectively. In addition, the Ki app in assay [3] is above 5 µM.
For `COc1ccsc1C(=O)Nc1ccc(C)cc1C(=O)Nc1ccc(Cl)cc1`, the results for the Ki in assay [1] and in assay [2] were above 5 µM and 0.16 µM, respectively. Further, the Ki app in assay [3] is above 5 µM.
Regarding `Cc1ccc(NC(=O)c2sc3ccccc3c2Cl)c(C(=O)Nc2ccc(C#N)cc2)c1`, the Ki was above 5 µM in assay [1] and 0.15 µM in assay [2].
Consider `Cc1ccc(NC(=O)c2sc3ccccc3c2Cl)c(C(=O)Nc2ccc(N)cc2)c1`, for which the Ki is above 5 µM in assay [1] and 0.28 µM in assay [2].
In the case of `Cc1ccc(NC(=O)c2cc(C)ccc2NC(=O)c2sc3ccccc3c2Cl)cc1`, the Ki was above 5 µM in assay [1] and 0.0071 µM in assay [2]. The Ki app in assay [3] is above 5 µM.
With `O=C(Nc1ccc(Cl)cc1)c1cc(Cl)ccc1NC(=O)c1sc2ccccc2c1Cl`, the values for the Ki in assay [1] and in assay [2] were above 5 µM and 0.0006 µM, respectively. The same compound displayed a Ki app in assay [3] above 5 µM.
Consider `O=C(Nc1ccc(Cl)cc1)c1ccc(C(F)(F)F)cc1NC(=O)c1sc2ccccc2c1Cl`, for which the Ki in assay [1] is above 5 µM; in assay [2], 0.1 µM. In assay [3], the Ki app is above 5 µM.
For `Cc1ccc(NC(=O)c2sc3ccccc3c2O)c(C(=O)Nc2ccc(Cl)cc2)c1`, the Ki was above 5 µM in assay [1] and 4.4 µM in assay [2].
The corresponding values for `O=C(Nc1ccc(Cl)cc1)c1cc(F)ccc1NC(=O)c1sc2ccccc2c1Cl` are above 5 µM and 0.005 µM.
As for `COc1c(C(=O)Nc2ccc(C)cc2C(=O)Nc2ccc(Cl)cc2)sc2ccccc12`, the Ki is above 5 µM in assay [1] and 0.0059 µM in assay [2]. The Ki app in assay [3] is above 5 µM.
On to `O=C(Nc1ccc(Cl)cc1)c1ccc(F)cc1NC(=O)c1sc2ccccc2c1Cl`, for which the figures for the Ki in assay [1] and in assay [2] were above 5 µM and 0.015 µM, respectively.
The corresponding values for `Cc1ccc(NC(=O)c2sccc2Cl)c(C(=O)Nc2ccc(Cl)cc2)c1` are above 5 µM and 0.13 µM.
Turning to `Cc1ccc(NC(=O)c2sc3ccccc3c2Cl)c(C(=O)Nc2ccc(C(=O)O)cc2)c1`, the results for the Ki in assay [1] and in assay [2] were above 5 µM and 4.7 µM, respectively. In assay [3], the Ki app is above 5 µM.
In the case of `Cc1ccc(NC(=O)c2sc3ccccc3c2Cl)c(C(=O)Nc2cccc(Cl)c2)c1`, the figures for the Ki in assay [1] and in assay [2] were above 5 µM and 0.26 µM, respectively. Also, the Ki app in assay [3] is above 5 µM.
Regarding `Cc1ccc(NC(=O)c2sc3ccccc3c2Cl)c(C(=O)Nc2cccnc2)c1`, the Ki in assay [1] is above 5 µM; in assay [2], 0.21 µM. Besides, the Ki app in assay [3] is above 5 µM.
With `O=C(Nc1ccc(Cl)cc1)c1cccc(Cl)c1NC(=O)c1sc2ccccc2c1Cl`, the results for the Ki in assay [1] and in assay [2] were above 5 µM and 0.024 µM, respectively. The Ki app in assay [3] is above 5 µM.
On to `O=C(Nc1ccc(Cl)cc1)c1cc(N2CCCC2)ccc1NC(=O)c1sc2ccccc2c1Cl`, for which the Ki in assay [1] and in assay [2] was above 5 µM each time. The compound also gave a Ki app in assay [3] above 5 µM.
As to `Cc1ccc(NC(=O)c2cc3ccccc3s2)c(C(=O)Nc2ccc(F)cc2)c1`, the Ki in assay [1] is above 5 µM; in assay [2], 0.59 µM.
On to `Nc1ccc(NC(=O)c2sc3ccccc3c2Cl)c(C(=O)Nc2ccc(Cl)cc2)c1`, for which the Ki in assay [1] is above 5 µM; in assay [2], 0.016 µM. In assay [3], this compound showed a Ki app above 5 µM.
On to `Cc1ccc(NC(=O)c2cccnc2C)c(C(=O)Nc2ccc(Cl)cc2)c1`, for which the Ki in assay [1] and in assay [2] was above 5 µM in each case. In addition, the Ki app in assay [3] is above 5 µM.
In the case of `Cc1ccc(NC(=O)c2ccccc2Br)c(C(=O)Nc2ccc(Cl)cc2)c1`, the Ki was above 5 µM in assay [1] and 0.96 µM in assay [2]. In assay [3], this compound yielded a Ki app above 5 µM.
For the compound `Cc1cc(Cl)cc(C(=O)Nc2ccc(Cl)cc2)c1NC(=O)c1sc2ccccc2c1Cl`, the Ki in assay [1] was above 5 µM; in assay [2], 0.0018 µM.
Take `COc1ccc(COc2ccc(NC(=O)c3sc4ccccc4c3Cl)c(C(=O)Nc3ccc(Cl)cc3)c2)cc1`: the Ki in assay [1] and in assay [2] was above 5 µM throughout. In assay [3], this compound displayed a Ki app above 5 µM.
Take `O=C(Nc1ccc(Cl)cc1)c1cc(Cl)cc(O)c1NC(=O)c1sc2ccccc2c1Cl`: the Ki in assay [1] is above 5 µM; in assay [2] it was 0.0037 µM.
On to `COc1cccc(C(=O)Nc2ccc(Cl)cc2)c1NC(=O)c1sc2ccccc2c1Cl`, for which the results for the Ki in assay [1] and in assay [2] were above 5 µM and 0.022 µM, respectively.
For the compound `Cc1cccc(C(=O)Nc2ccc(Cl)cc2)c1NC(=O)c1sc2ccccc2c1Cl`, the Ki in assay [1] was above 5 µM; in assay [2] it was 0.058 µM. In addition, the Ki app in assay [3] is above 5 µM.
As to `Cc1ccc(NC(=O)c2sc3ccccc3c2Cl)c(C(=O)Nc2ccccc2)c1`, the Ki is above 5 µM in assay [1] and 0.019 µM in assay [2]. Further, the Ki app in assay [3] was above 5 µM.
With `Cc1ccc(NC(=O)c2ccc3ccccc3c2)c(C(=O)Nc2ccc(Cl)cc2)c1`, the Ki is above 5 µM in assay [1] and 0.078 µM in assay [2]. This compound also displayed a Ki app in assay [3] above 5 µM.
For the compound `O=C(Nc1cccc(F)c1C(=O)Nc1ccc(Cl)cc1)c1sc2ccccc2c1Cl`, the Ki in assay [1] is above 5 µM; in assay [2], 0.026 µM. Moreover, the Ki app in assay [3] was above 5 µM.
Consider `CCOc1ccc(NC(=O)c2cc(C)ccc2NC(=O)c2sc3ccccc3c2Cl)cc1`, for which the Ki in assay [1] and in assay [2] was above 5 µM each time. The compound further had a Ki app in assay [3] above 5 µM.
As to `Cc1cccc(NC(=O)c2sc3ccccc3c2Cl)c1C(=O)Nc1ccc(Cl)cc1`, the Ki in assay [1] and in assay [2] was above 5 µM each time. For the same compound, in assay [3], the Ki app is above 5 µM.
With `CN1CCN(c2ccc(NC(=O)c3sc4ccccc4c3Cl)c(C(=O)Nc3ccc(Cl)cc3)c2)CC1`, the Ki in assay [1] was above 5 µM; in assay [2] it was 0.47 µM. In assay [3], this compound returned a Ki app above 5 µM.
`Cc1ccc(NC(=O)c2scc(S(C)(=O)=O)c2Cl)c(C(=O)Nc2ccc(Cl)cc2)c1`: the Ki in assay [1] was above 5 µM; in assay [2] it was 0.014 µM. Moreover, in assay [3], the Ki app was above 5 µM.
In the case of `Cc1ccc(NC(=O)c2sc3ccccc3c2Cl)c(C(=O)Nc2ccc(F)cc2)c1`, the Ki in assay [1] is above 5 µM.
Regarding `COc1ccc(NC(=O)c2cc(C)ccc2NC(=O)c2sc3ccccc3c2Cl)cc1`, the Ki in assay [1] was above 5 µM; in assay [2], 0.016 µM. The compound also had a Ki app in assay [3] above 5 µM.
With `Cc1ccc(NC(=O)c2sc3ccccc3c2Cl)c(C(=O)Nc2ccccc2Cl)c1`, the Ki in assay [1] and in assay [2] was above 5 µM throughout.
With `Cc1ccc(NC(=O)c2sc3ccccc3c2Cl)c(C(=O)Nc2ccc(Cl)cc2)c1`, the Ki in assay [1] was above 5 µM.
